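A five-concentration, 48-hour dose response in 96-well plates underlies each endpoint, interpolated linearly between surrounding concentrations. The concentration for 50% growth inhibition is given as GI50.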 Calls of active or inactive are those of the source. No stated cut-off is given here; in the data, active = GI50 up to about 1.1 µM and inactive = higher.
Key:
Experiment in all cases: NCI-60 cell line screen, 48 h
HCT-116 = tested on: HCT-116
MDA-MB-435 = tested on: MDA-MB-435
M14 = tested on: M14
BT-549 = tested on: BT-549
MDA-MB-231 = tested on: MDA-MB-231
EKVX = tested on: EKVX
SF-295 = tested on: SF-295
HCC 2998 = tested on: HCC 2998
CAKI-1 = tested on: CAKI-1
T47D = tested on: T47D
A549 = tested on: A549
NCI-H460 = tested on: NCI-H460
UO-31 = tested on: UO-31
Hs-578T = tested on: Hs-578T
SK-MEL-5 = tested on: SK-MEL-5
PC-3 = tested on: PC-3
MDA-N = tested on: MDA-N
OVCAR-4 = tested on: OVCAR-4
SR = tested on: SR

C/C(=N\Nc1nc2ccccc2s1)c1ncccn1
GI50 (HCT-116): < 0.0193 µM (active)
GI50 (MDA-MB-435): 0.363 µM (active)
GI50 (M14): < 0.0194 µM (active)
GI50 (BT-549): 0.346 µM (active)
GI50 (MDA-MB-231): < 0.0179 µM (active)
GI50 (EKVX): < 0.0111 µM (active)
GI50 (SF-295): 0.11 µM (active)
GI50 (HCC 2998): 0.953 µM (active)
GI50 (CAKI-1): < 0.01 µM (active)
GI50 (T47D): < 0.01 µM (active)
GI50 (A549): 0.141 µM (active)
GI50 (NCI-H460): 0.04 µM (active)
GI50 (UO-31): 0.022 µM (active)
GI50 (Hs-578T): 0.59 µM (active)
GI50 (SK-MEL-5): 0.03 µM (active)
GI50 (PC-3): 0.118 µM (active)

Cc1ccc2c(c1C)C(=O)/C(=C/c1ccccc1C(=O)O)C2
GI50 (HCT-116): > 100 µM (inactive)
GI50 (MDA-N): > 100 µM (inactive)
GI50 (MDA-MB-435): > 100 µM (inactive)
GI50 (M14): > 100 µM (inactive)
GI50 (OVCAR-4): > 100 µM (inactive)
GI50 (BT-549): 20.7 µM (inactive)
GI50 (EKVX): > 100 µM (inactive)
GI50 (SF-295): > 100 µM (inactive)
GI50 (HCC 2998): > 100 µM (inactive)
GI50 (SR): > 100 µM (inactive)
GI50 (CAKI-1): > 100 µM (inactive)
GI50 (T47D): > 100 µM (inactive)
GI50 (A549): > 100 µM (inactive)
GI50 (NCI-H460): > 100 µM (inactive)
GI50 (UO-31): > 100 µM (inactive)
GI50 (Hs-578T): > 100 µM (inactive)
GI50 (SK-MEL-5): 42.3 µM (inactive)
GI50 (PC-3): > 100 µM (inactive)

Cc1c(Cl)c(S(N)(=O)=O)cc(S(N)(=O)=O)c1NC(=O)c1ccc(Cl)cc1
GI50 (HCT-116): > 100 µM (inactive)
GI50 (MDA-N): > 100 µM (inactive)
GI50 (MDA-MB-435): > 100 µM (inactive)
GI50 (M14): > 100 µM (inactive)
GI50 (OVCAR-4): > 100 µM (inactive)
GI50 (BT-549): > 100 µM (inactive)
GI50 (SF-295): > 100 µM (inactive)
GI50 (HCC 2998): > 100 µM (inactive)
GI50 (CAKI-1): > 100 µM (inactive)
GI50 (T47D): > 100 µM (inactive)
GI50 (A549): > 100 µM (inactive)
GI50 (NCI-H460): > 100 µM (inactive)
GI50 (UO-31): > 100 µM (inactive)
GI50 (Hs-578T): > 100 µM (inactive)
GI50 (SK-MEL-5): > 100 µM (inactive)
GI50 (PC-3): > 100 µM (inactive)

NNC(=S)N/N=C(\C(=O)Nc1cccc(O)c1)C1C(=O)NC(=S)NC1=O
GI50 (HCT-116): > 100 µM (inactive)
GI50 (MDA-MB-435): > 100 µM (inactive)
GI50 (M14): > 100 µM (inactive)
GI50 (OVCAR-4): 36.3 µM (inactive)
GI50 (BT-549): > 100 µM (inactive)
GI50 (MDA-MB-231): > 100 µM (inactive)
GI50 (EKVX): > 100 µM (inactive)
GI50 (SF-295): > 100 µM (inactive)
GI50 (HCC 2998): > 100 µM (inactive)
GI50 (SR): > 100 µM (inactive)
GI50 (CAKI-1): > 100 µM (inactive)
GI50 (T47D): > 100 µM (inactive)
GI50 (A549): > 100 µM (inactive)
GI50 (NCI-H460): > 100 µM (inactive)
GI50 (UO-31): > 100 µM (inactive)
GI50 (Hs-578T): > 100 µM (inactive)
GI50 (SK-MEL-5): > 100 µM (inactive)
GI50 (PC-3): > 100 µM (inactive)

O=C1NC(=S)N/C1=C\c1cccs1
GI50 (HCT-116): > 100 µM (inactive)
GI50 (MDA-N): > 100 µM (inactive)
GI50 (MDA-MB-435): > 100 µM (inactive)
GI50 (M14): > 100 µM (inactive)
GI50 (OVCAR-4): > 100 µM (inactive)
GI50 (BT-549): > 100 µM (inactive)
GI50 (MDA-MB-231): > 100 µM (inactive)
GI50 (EKVX): > 100 µM (inactive)
GI50 (SF-295): > 100 µM (inactive)
GI50 (HCC 2998): > 100 µM (inactive)
GI50 (CAKI-1): > 100 µM (inactive)
GI50 (T47D): 73.1 µM (inactive)
GI50 (A549): > 100 µM (inactive)
GI50 (UO-31): > 100 µM (inactive)
GI50 (Hs-578T): > 100 µM (inactive)
GI50 (SK-MEL-5): > 100 µM (inactive)
GI50 (PC-3): > 100 µM (inactive)

Cc1cc(C)c2c(=O)n(CN3CCN(c4ccccc4)CC3)sc2n1
GI50 (HCT-116): 17.7 µM (inactive)
GI50 (MDA-N): 23.7 µM (inactive)
GI50 (MDA-MB-435): 37.8 µM (inactive)
GI50 (M14): 24.5 µM (inactive)
GI50 (OVCAR-4): 54 µM (inactive)
GI50 (BT-549): 63.2 µM (inactive)
GI50 (MDA-MB-231): 20.4 µM (inactive)
GI50 (EKVX): 29.8 µM (inactive)
GI50 (SF-295): > 100 µM (inactive)
GI50 (HCC 2998): 71.3 µM (inactive)
GI50 (CAKI-1): 21 µM (inactive)
GI50 (T47D): 15 µM (inactive)
GI50 (A549): 33.8 µM (inactive)
GI50 (NCI-H460): 67.9 µM (inactive)
GI50 (UO-31): 21.6 µM (inactive)
GI50 (Hs-578T): 70.1 µM (inactive)
GI50 (SK-MEL-5): 28.3 µM (inactive)
GI50 (PC-3): 19.4 µM (inactive)

CC(ON1[C@](C)(c2ccccc2)CC[C@@]1(C)c1ccccc1)c1ccccc1 (stereo not given in full)
GI50 (HCT-116): 25.4 µM (inactive)
GI50 (MDA-MB-435): 44.4 µM (inactive)
GI50 (M14): 24.2 µM (inactive)
GI50 (OVCAR-4): 68.4 µM (inactive)
GI50 (BT-549): 13.4 µM (inactive)
GI50 (MDA-MB-231): 43.3 µM (inactive)
GI50 (EKVX): 23.8 µM (inactive)
GI50 (SF-295): 26.3 µM (inactive)
GI50 (HCC 2998): 20.9 µM (inactive)
GI50 (CAKI-1): 37.8 µM (inactive)
GI50 (T47D): 24.1 µM (inactive)
GI50 (A549): 30.9 µM (inactive)
GI50 (NCI-H460): 36.2 µM (inactive)
GI50 (UO-31): 37.9 µM (inactive)
GI50 (Hs-578T): 37.3 µM (inactive)
GI50 (SK-MEL-5): 30 µM (inactive)
GI50 (PC-3): 39.2 µM (inactive)

Cn1ncc2c(Nc3cccc(Cl)c3)nc(Nc3cccc(Cl)c3)nc21
GI50 (HCT-116): 11.4 µM (inactive)
GI50 (MDA-MB-435): 10.9 µM (inactive)
GI50 (M14): 6.7 µM (inactive)
GI50 (OVCAR-4): 11.9 µM (inactive)
GI50 (BT-549): 21.8 µM (inactive)
GI50 (MDA-MB-231): 16.7 µM (inactive)
GI50 (EKVX): 14.5 µM (inactive)
GI50 (SF-295): 5.47 µM (inactive)
GI50 (HCC 2998): 8.93 µM (inactive)
GI50 (CAKI-1): 7.6 µM (inactive)
GI50 (T47D): 10.2 µM (inactive)
GI50 (A549): 8.11 µM (inactive)
GI50 (UO-31): 9.73 µM (inactive)
GI50 (Hs-578T): 12 µM (inactive)
GI50 (SK-MEL-5): > 35.6 µM (inactive)
GI50 (PC-3): 8.24 µM (inactive)

CCOC(=O)C1=COC(C)(C)CC1=O
GI50 (HCT-116): > 100 µM (inactive)
GI50 (MDA-N): > 100 µM (inactive)
GI50 (MDA-MB-435): > 100 µM (inactive)
GI50 (M14): > 100 µM (inactive)
GI50 (OVCAR-4): > 100 µM (inactive)
GI50 (BT-549): > 100 µM (inactive)
GI50 (MDA-MB-231): > 100 µM (inactive)
GI50 (EKVX): > 100 µM (inactive)
GI50 (SF-295): > 100 µM (inactive)
GI50 (CAKI-1): > 100 µM (inactive)
GI50 (T47D): > 100 µM (inactive)
GI50 (A549): > 100 µM (inactive)
GI50 (NCI-H460): > 100 µM (inactive)
GI50 (UO-31): > 100 µM (inactive)
GI50 (Hs-578T): > 100 µM (inactive)
GI50 (SK-MEL-5): > 100 µM (inactive)
GI50 (PC-3): > 100 µM (inactive)

CC(C)[Si]1(C(C)C)OCC2OC(n3ccc(=O)[nH]c3=O)C(O)(CO)C2O[Si](C(C)C)(C(C)C)O1 (stereo not given)
GI50 (HCT-116): 14.3 µM (inactive)
GI50 (MDA-MB-435): 17 µM (inactive)
GI50 (M14): 19.1 µM (inactive)
GI50 (OVCAR-4): 13.8 µM (inactive)
GI50 (BT-549): 16.8 µM (inactive)
GI50 (MDA-MB-231): 13.6 µM (inactive)
GI50 (EKVX): 14.2 µM (inactive)
GI50 (SF-295): 15 µM (inactive)
GI50 (SR): 12.9 µM (inactive)
GI50 (CAKI-1): 15.8 µM (inactive)
GI50 (T47D): 15.1 µM (inactive)
GI50 (A549): 14.4 µM (inactive)
GI50 (UO-31): 10.2 µM (inactive)
GI50 (Hs-578T): 3.31 µM (inactive)
GI50 (SK-MEL-5): 15.1 µM (inactive)
GI50 (PC-3): 13 µM (inactive)

CC(C)C1=CC2=C(C(=O)C1=O)C13CCCC(C)(C)C1CC2OC3=O (stereo not given)
GI50 (HCT-116): 18.3 µM (inactive)
GI50 (MDA-N): 17.9 µM (inactive)
GI50 (MDA-MB-435): 20.8 µM (inactive)
GI50 (M14): 24 µM (inactive)
GI50 (OVCAR-4): 18.6 µM (inactive)
GI50 (BT-549): 16.8 µM (inactive)
GI50 (MDA-MB-231): 21.9 µM (inactive)
GI50 (EKVX): 16.2 µM (inactive)
GI50 (SF-295): 37 µM (inactive)
GI50 (HCC 2998): 21.3 µM (inactive)
GI50 (CAKI-1): 17.9 µM (inactive)
GI50 (T47D): 20.4 µM (inactive)
GI50 (A549): 43.5 µM (inactive)
GI50 (NCI-H460): 26.2 µM (inactive)
GI50 (UO-31): 19.4 µM (inactive)
GI50 (Hs-578T): 34.4 µM (inactive)
GI50 (SK-MEL-5): 25.2 µM (inactive)
GI50 (PC-3): 24.2 µM (inactive)

C1CSCCSCCCSCCSCCCSCCSCCCSCCSC1
GI50 (HCT-116): 62.8 µM (inactive)
GI50 (MDA-N): > 100 µM (inactive)
GI50 (MDA-MB-435): > 100 µM (inactive)
GI50 (M14): > 100 µM (inactive)
GI50 (OVCAR-4): > 100 µM (inactive)
GI50 (BT-549): > 100 µM (inactive)
GI50 (EKVX): > 100 µM (inactive)
GI50 (SF-295): > 100 µM (inactive)
GI50 (HCC 2998): > 100 µM (inactive)
GI50 (SR): > 100 µM (inactive)
GI50 (CAKI-1): > 100 µM (inactive)
GI50 (T47D): 57 µM (inactive)
GI50 (A549): > 100 µM (inactive)
GI50 (NCI-H460): > 100 µM (inactive)
GI50 (UO-31): > 100 µM (inactive)
GI50 (Hs-578T): > 100 µM (inactive)
GI50 (SK-MEL-5): > 100 µM (inactive)
GI50 (PC-3): 69.3 µM (inactive)

— ChEMBL document CHEMBL1201862, “PubChem BioAssay data set” (2004)
